Laboratory results published in publication PMC7217877, “N-AS-triggered SPMs are direct regulators of microglia in a model of Alzheimer’s disease” (Nature Communications, 2020).
Where “and” joins values, the source holds several entries; their conditions need not be identical. Equal entries are not always repeated.

Experiments:
COX2 = molecular target: T1, COX2 (Homo sapiens, UniProt P35354); assay: S565 acetylation of recombinant COX2 (ac-S565 western blot, LC-MS/MS of acetylated site); type: biochemical; parameters: purchased LSBio LS-G21094; details: 2 mM; vs naive and aspirin-treated COX2
T1 sequence (P35354 18-604): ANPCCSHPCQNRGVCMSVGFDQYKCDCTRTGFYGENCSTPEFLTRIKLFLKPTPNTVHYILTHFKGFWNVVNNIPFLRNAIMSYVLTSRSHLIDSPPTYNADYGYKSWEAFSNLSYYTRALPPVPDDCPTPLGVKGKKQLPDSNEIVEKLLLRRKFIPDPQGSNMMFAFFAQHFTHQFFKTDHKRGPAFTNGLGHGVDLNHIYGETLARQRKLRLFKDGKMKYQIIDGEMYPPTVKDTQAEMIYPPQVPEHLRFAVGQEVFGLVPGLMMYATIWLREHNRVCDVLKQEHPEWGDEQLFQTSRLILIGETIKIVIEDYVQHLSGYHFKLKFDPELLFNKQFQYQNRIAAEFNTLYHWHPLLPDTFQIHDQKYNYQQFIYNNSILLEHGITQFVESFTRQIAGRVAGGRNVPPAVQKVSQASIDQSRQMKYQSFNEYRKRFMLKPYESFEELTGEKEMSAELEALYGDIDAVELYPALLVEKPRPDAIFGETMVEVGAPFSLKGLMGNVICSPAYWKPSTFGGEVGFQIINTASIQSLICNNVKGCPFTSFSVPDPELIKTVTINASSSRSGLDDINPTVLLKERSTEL
Procedure: To identify the acetylation site of COX2, N-AS (Sigma-Aldrich, 01912)-treated COX2 enzymes (LSBio, LS-G21094) were immediately precipitated with trichroloacetic acid (Merck) and dried. The dried extract was resuspended in 10 μl of 5 M Urea solution and incubated with 1 μg sequencing-grade modified porcine trypsin (Promega) in 0.1 M ammonium bicarbonate buffer at 37 °C for 16 h. The sample was then treated with 1 M DTT (GE Healthcare) at RT for 1 h, followed by alkylation with 1 M iodoacetamide (Sigma-Aldrich) for 1 h. For sequencing, the protein samples were loaded onto a ZORBAX 300SB-C18 column (3.5 μm, 1.0 mm i.d. × 150 mm, Agilent). The column was placed in-line with an UltiMate 3000 system (Dionex, USA) and a splitter system was used to achieve a flow rate of 100 μl min^−1. Analytes were eluted with a mobile phase consisting of water: formic acid (100:0.2 v/v) (phase A) and acetonitrile: formic acid (100:0.2 v/v) (phase B) in gradient elution mode for 77 min. […]
Samples were lysed in RIPA buffer (Cell signaling Technologies), then subjected to SDS-PAGE and transferred to a nitrocellulose membrane. […] We performed densitometric quantification using the ImageJ software (National Institutes of Health). […]

APP/PS1 mice = assay: mRNA levels of NEP, MMP9, IDE, CD36 in microglia (Supplementary Fig 5c); type: in vivo, mouse; parameters: CD36 mRNA level in microglia / NEP mRNA level in microglia / MMP9 mRNA level in microglia / IDE mRNA level in microglia: scale not given here
Procedure: Transgenic mouse lines over-expressing the hAPP695swe (APP) and presenilin-1M146V (PS1) mutations were originated from GlaxoSmithKline (Harlow, UK)[32] and maintained as described previously. We purchased 5×FAD mice from Jackson Labs (Stock number. 34840-JAX). Because APP/PS1 and 5xFAD mice show sex differences in disease progression, we used only male mice. To examine possible therapeutic effect of N-AS and aspirin in APP/PS1 mice, the N-AS (30 mg kg^−1, Sigma-Aldrich, 01912) was injected daily s.c. for 8 weeks to 7-months-old APP/PS1 mice until the age of 9 months, and aspirin (2 mg kg^−1, Sigma-Aldrich, A5376)[33] was administrated orally to 7-months-old APP/PS1 mice for 8 weeks. Also, to confirm possible therapeutic efficacy of N-AS in 5×FAD, the N-AS (30 mg kg^−1, Sigma-Aldrich, 01912) was injected daily s.c. for 4 weeks to 3-months-old 5×FAD mice until the age of 4 months. Block randomization method was used to allocate the animals to experimental groups. To eliminate the bias, we were blinded in experimental progress such as data collection and data analysis. Mice were housed at temperature of 22 °C and a 12 h day/12 h night cycle with free access to tap water and food pellets. All protocols were approved by the Kyungpook National University Institutional Animal Care and Use Committee.
For total RNA extraction from the microglia derived from WT, APP/PS1, APP/PS1 mice treated with N-AS, and APP/PS1 mice treated with aspirin, the cells were isolated from the cortex of WT, APP/PS1, APP/PS1 mice treated with N-AS, or aspirin using the methods described above. Total RNA was isolated using the kit components according to the manufacturer’s instructions (RNeasy mini kit, 74134, QIAGEN). cDNA was synthesized from 5 μg of total RNA using a commercially available kit (Takara). Quantitative real-time PCR was performed using a Corbett research RG-6000 real-time PCR instrument. Primers are described in Supplementary Table 5.

[1] = APP/PS1 + N-AS, individual values, sFig 5c

CCCCCCCCCCCCC/C=C/[C@@H](O)[C@H](CO)NC(C)=O [N-AS, N-((2S,3R,E)-1,3-Dihydroxyoctadec-4-en-2-yl)acetamide]
ac-S565 signal in western blot of recombinant COX2 (COX2): strong ac-S565-positive signals | CD36 mRNA level in microglia (APP/PS1 mice; [1]): 0.97 and 0.75 and 0.78 and 0.69 and 0.81 and 0.87 and 0.79 and 0.61 | IDE mRNA level in microglia (APP/PS1 mice; [1]): 0.68 and 0.56 and 0.55 and 0.48 and 0.82 and 0.81 and 0.71 and 0.78 and 0.77 | MMP9 mRNA level in microglia (APP/PS1 mice; [1]): 0.87 and 0.47 and 0.35 and 0.38 and 0.69 and 0.52 and 0.57 and 1.05 and 0.8 | NEP mRNA level in microglia (APP/PS1 mice; [1]): 0.96 and 0.5 and 0.52 and 0.57 and 0.56 and 0.59 and 0.64 and 0.85 and 0.88 | CD36 expression (APP/PS1 mice; APP/PS1 treated with N-AS): enhanced | expression of Aβ degrading enzymes (NEP, MMP9, IDE) (APP/PS1 mice; WT, APP/PS1 vehicle, APP/PS1 N-AS): remained unchanged between the groups
